In patent US20220008414A1, “PHARMACEUTICAL COMPOSITION COMPRISING HISTONE DEACETYLASE 6 INHIBITORS” (Chong Kun Dang Pharmaceutical Corp., priority 2018, published 2022):

Key:
[1] = system: hippocampal neurons from a Sprague-Dawley (SD) rat fetus; assay: Effect on axonal transport velocity of mitochondria (in vitro); type: cell-based; conditions: amyloid-beta treated neurons, vehicle set at 100%, amyloid-beta group at 0%
Protocol: To that end, on the 17th to 18th days (E17-18) of insemination, the hippocampal neurons from a Sprague-Dawley (SD) rat fetus were cultured for seven days in a culture container for imaging, which had been coated with extracellular matrix, and were treated with amyloid-beta protein fragments at a concentration of […]. In 24 hours later, such neurons were treated with the compound on the 8th day of in vitro culture. In three hours later, they were treated with MitoTracker Red CMXRos (Life Tech-nologies, NY, USA) for last five minutes to stain mitochondria. An image on the axonal transport of stained neuron mitochondria was taken with a confocal microscope (Leica SP8; Leica microsystems, UK) at an interval of one second for one minute to measure a transport velocity of each mitochondria per second with an IMARIS analysis program (BITPLANE, Zurich, Switzerland), and to set a section, in which the group treated with amyloid-beta had shown a significant decrease in the transport velocity of mitochondria compared to a vehicle. After that, the results of normalization with the vehicle set at 100% and with the group treated with amyloid-beta set at 0% were described in the following table 1.

HDAC-8 = target: T1, HDAC-8 (Homo sapiens, UniProt Q9BY41); assay: HDAC isotype enzyme assay (Reaction biology Corp.); type: biochemical; conditions: substrate RHK-K(Ac)-AMC
T1 construct: Reaction biology Corp. (contract laboratory)
T1 sequence (Q9BY41 1-377): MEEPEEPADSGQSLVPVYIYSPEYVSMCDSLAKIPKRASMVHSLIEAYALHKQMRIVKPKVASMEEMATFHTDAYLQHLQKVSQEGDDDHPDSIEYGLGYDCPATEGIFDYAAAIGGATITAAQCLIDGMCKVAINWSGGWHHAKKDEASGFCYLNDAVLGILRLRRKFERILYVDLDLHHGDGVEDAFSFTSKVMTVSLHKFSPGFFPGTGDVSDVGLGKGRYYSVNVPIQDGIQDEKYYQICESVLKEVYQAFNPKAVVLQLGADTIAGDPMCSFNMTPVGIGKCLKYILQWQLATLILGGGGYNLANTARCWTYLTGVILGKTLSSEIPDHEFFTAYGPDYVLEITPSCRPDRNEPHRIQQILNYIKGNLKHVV

other HDAC isotypes = assay: HDAC isotype enzyme assay (Reaction biology Corp.), remaining isotypes; type: biochemical; conditions: isotypes other than HDAC6 and HDAC8 (ND in table 3)
CMT1A mice (C22) [2] = assay: Rotarod test; type: in vivo; conditions: 10, 25 and 100 mg/kg twice a day orally for two weeks, 2.5-week-old C22 mice, vs control group (DW C22)
Protocol: (§1) Particularly, the compound 84 was repeatedly administered into the 2.5-week-old CMT1A mice (C22) at 10, 25 and 100 mg/kg twice a day for two weeks. Behavioral evaluation and electrophysiological analysis were performed on the last day, immediately after which the animals were sacrificed to carry out histopathological analysis and evaluation.
(§2) Rotarod, balance beam and grip strength tests were conducted once a day for two days. Thereafter, the animals were distributed by the Z-array method based on the results of rotarod, grip strength, and body weight. C22 mice were divided into four groups consisting of DW treated group and three compound 84 treated groups (10, 25, 100 mg/kg) with 10 mice per group. The test articles were repeatedly administered twice a day orally, and the behavioral test was performed 30 min after administration of the test articles.
The Rotarod test (ROTA ROD, LE8205, Panlab) was performed to evaluate a motor coordination function/motor function. For three days before the test, all the test animals were placed on a road at 8 rpm and subjected to adaptive training five times a day. The animals, whose time of falling from the rod reached 150-180 seconds, were used in the test (including about 80% of all the animals). In both group separation and the present experiment, time at which animals fell from the rod was measured at a fixed speed of 8 rpm for three minutes. […]

CMT1A mice (C22) [3] = assay: Grip strength test; type: in vivo; conditions: 10, 25 and 100 mg/kg twice a day orally for two weeks, 2.5-week-old C22 mice, vs control group (DW C22)
Protocol: as §1, §2
In an actual clinical test, a degree of muscle atrophy is evaluated with an ankle dorsiflexion examination and a grip test. GST (GRIP […] TEST, BIO-GS3, BIOSEB) is mainly used in an animal experiment. For the GST, strength of four feet was evaluated with grid. All the experiments were performed by one person. […] Out of the values consecutively measured five times, the maximum value was calibrated with a weight, and then used as evaluation results. […]

CMT1A mice (C22) [4] = assay: Nerve conduction study (NCS); type: in vivo; conditions: 10, 25 and 100 mg/kg twice a day for two weeks, 2.5-week-old C22 mice, vs control group (DW C22)
Protocol: as §1
The evaluation of the nerve conduction study (NSC) was as follows. A supramaximal stimulus was applied to proximal peripheral nerves, after which the compound muscle action potentials (CMAP) produced from distal muscles controlled by the nerves were recorded to measure a latent period, amplitude, nerve conduction velocity (NCV), duration, shape, area and the like, which were then compared with normal values and thus evaluated. For the nerve conduction study (NSC), an electrical stimulus was given to the sciatic nerves of the mice anesthetized with isoflurane, after which the electrical stimulus given to sural nerves was measured with VikingQuest (Natus Medical Inc.).

CMT1A mice (C22) [5] = assay: Histopathological analysis of sciatic nerves; type: in vivo
Protocol: as §1
A histopathological analysis was performed as follows. In 0.5 hours after the last administration of the compound 84, the mice were euthanized through cervical dis-location, after which their sciatic nerves were collected therefrom. For a histopathological examination, the collected sciatic nerves were fixed into 2.5% glu-taraldehyde solution. The fixed tissues were prepared into a plastic-embedded block through a tissue treatment process, then micro-sectioned in the semithin thickness of 500 nm to prepare sciatic nerve tissue fragments, and then stained with toluidine blue.
The stained nerve tissues were photographed at 400× magnification with an optical microscope. In a photographed entire area, the inner axon diameters of total myelinated fibers and total unmyelinated fibers were measured with an image J program. The results thereof were analyzed by using the numbers of total myelinated fibers and total unmyelinated fibers as well as a size distribution chart on the diameters of respective nerve fibers.

HDAC-6 [6] = target: T2, HDAC-6 (Homo sapiens, UniProt Q9UBN7); assay: HDAC6 enzyme activity inhibition (HDAC Fluorimetric Drug Discovery Kit); type: biochemical; design: purchased Calbiochem Inc. 382180; conditions: HDAC6 over HDAC1
T2 sequence (Q9UBN7 1-1215): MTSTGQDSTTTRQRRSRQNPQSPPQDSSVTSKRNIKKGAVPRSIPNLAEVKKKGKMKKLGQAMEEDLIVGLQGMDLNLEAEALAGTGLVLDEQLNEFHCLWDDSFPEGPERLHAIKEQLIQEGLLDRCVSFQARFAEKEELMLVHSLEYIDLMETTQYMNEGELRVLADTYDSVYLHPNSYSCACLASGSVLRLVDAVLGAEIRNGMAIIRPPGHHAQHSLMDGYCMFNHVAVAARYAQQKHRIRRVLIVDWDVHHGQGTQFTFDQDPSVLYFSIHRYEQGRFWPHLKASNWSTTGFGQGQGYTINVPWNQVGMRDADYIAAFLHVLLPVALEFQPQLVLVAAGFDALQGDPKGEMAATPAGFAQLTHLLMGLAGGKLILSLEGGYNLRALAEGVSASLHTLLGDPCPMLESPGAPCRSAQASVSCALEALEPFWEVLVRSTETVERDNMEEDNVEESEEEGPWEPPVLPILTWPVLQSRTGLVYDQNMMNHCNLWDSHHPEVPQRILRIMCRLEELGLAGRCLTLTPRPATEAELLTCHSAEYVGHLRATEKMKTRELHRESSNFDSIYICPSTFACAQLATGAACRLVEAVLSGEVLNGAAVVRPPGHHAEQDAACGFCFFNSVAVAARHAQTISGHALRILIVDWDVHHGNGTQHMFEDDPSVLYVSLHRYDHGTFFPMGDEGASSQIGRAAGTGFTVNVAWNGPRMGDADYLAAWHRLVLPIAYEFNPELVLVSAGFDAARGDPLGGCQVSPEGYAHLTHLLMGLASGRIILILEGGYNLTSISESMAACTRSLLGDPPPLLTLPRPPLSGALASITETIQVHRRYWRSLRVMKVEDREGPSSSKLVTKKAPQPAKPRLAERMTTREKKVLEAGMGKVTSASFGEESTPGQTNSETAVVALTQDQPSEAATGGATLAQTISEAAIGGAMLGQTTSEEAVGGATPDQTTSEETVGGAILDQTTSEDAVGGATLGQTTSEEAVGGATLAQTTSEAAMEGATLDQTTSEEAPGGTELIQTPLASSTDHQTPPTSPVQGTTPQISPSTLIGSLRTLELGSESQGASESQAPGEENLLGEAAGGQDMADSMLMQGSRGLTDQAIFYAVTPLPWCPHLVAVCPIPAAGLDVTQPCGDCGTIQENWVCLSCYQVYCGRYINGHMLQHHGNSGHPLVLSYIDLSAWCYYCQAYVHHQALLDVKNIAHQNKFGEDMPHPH
Protocol: A comparative experiment was conducted with an existing developed material as a control group in order to identify the selectivity of the compound represented by Formula I of the present invention to HDAC6 through an experiment on HDAC1 and HDAC6 enzyme activity inhibition.
The HDAC enzyme activity was measured with HDAC Fluorimetric Drug Discovery Kit (BML-[1424] AK511, 516) of Enzo Life Science, Inc. For the test on the HDAC1 enzyme activity, human recombinant HDAC1 (BML-SE456) was used as an enzyme source and Fluor de Lys®-“SIRT1 (BNL-KI177)” was used as a substrate. A 5-fold dilution of the compound was divided into a 96-well plate, after which 0.3 μg of the enzyme and 10 μM of the substrate were inserted into each well and subjected to reaction at 30° C. for 60 minutes, such that Fluor de Lys® Developer II (BMLKI176) was inserted thereinto and subjected to reaction for 30 minutes and finished. After that, a fluorescence value (Ex 360, Em 460) was measured with a multi-plate reader (Flexstation 3, Molecular Device). An experiment on HDAC6 enzyme was conducted in accordance with the same protocol as an HDAC1 enzyme activity test method by using human recombinant HDAC6 (382180) of Calbiochem Inc. Each IC50 value was calculated with GraphPad Prism 4.0 program, and final result values were described in the following table 2.

HDAC-6 [7] = target: T2, HDAC-6; assay: HDAC isotype enzyme assay (Reaction biology Corp.); type: biochemical; design: Reaction biology Corp. (contract laboratory); conditions: substrate RHK-K(Ac)-AMC
From the text: The experiment was requested at Reaction biology Corp. (Malvern, Pa., USA) and performed according to a test method established within the organization.

Row | IC50 (HDAC-8) [nM] | Inhibition of other HDAC isotypes (other HDAC isotypes) | HDAC6 selectivity (fold) (HDAC-6 [6]) | IC50 (HDAC-6 [7]) [nM] | Structure (SMILES) | Velocity distribution (%) ([1]; 0.5 uM) | Velocity distribution (%) ([1]; 15 uM) | Time of latency to fall (CMT1A mice (C22) [2]) | Grip strength (CMT1A mice (C22) [3]) | Compound muscle action potentials (CMAP) (CMT1A mice (C22) [4]) | Motor nerve conduction velocity (MNCV) (CMT1A mice (C22) [4]) | Size of diameters of myelinated nerves (CMT1A mice (C22) [5]; sciatic nerve, vs control group (C22-Veh)) | Ratio of myelinated nerves and unmyelinated nerves (CMT1A mice (C22) [5]; sciatic nerve, vs control group of mice) | Morphological changes (loss of myelinated nerve fibers, axonal atrophy and schwann cell hyperplasia) (CMT1A mice (C22) [5]; toluidine blue, 10, 25 or 100 mg/kg for two weeks, vs control group of mice) | Velocity distribution (%) ([1]; 1 uM) | Velocity distribution (%) ([1]; 3 uM)
1 | 5170 | not inhibited at all | 517 | 72.2 | C[C@@H]1CN(Cc2ccc(C(=O)NO)cc2)C[C@H](C)N1Cc1ccccc1 [Compound 84, 4-(((3R,5S)-4-benzyl-3,5-dimethylpiperazin-1-yl)methyl)-N-hydroxybenzamide] | * (0%~50%) | *** (>100%) | increased in a dose-dependent manner | increased in a dose-dependent manner | increased in a dose-dependent way | increased in a dose-dependent way | increase | significant increase | significant improvement | – | –
2 | – | – | >120 | – | C[C@@H]1CN(Cc2ccc(C(=O)NO)cc2)C[C@H](C)N1Cc1cccc(CN2CCCCC2)c1 [Compound 382, 4-(((3R,5S)-3,5-dimethyl-4-(3-(piperidin-1-ylmethyl)benzyl)piperazin-1-yl)methyl)-N-hydroxybenzamide] | – | – | – | – | – | – | – | – | – | – | –
3 | – | – | >237 | – | CC(C)CCN1CCN(Cc2cccc(CN3[C@H](C)CN(Cc4ccc(C(=O)NO)cc4)C[C@@H]3C)c2)CC1 [Compound 454, N-hydroxy-4-(((3R,5S)-4-(3-((4-isopentylpiperazin-1-yl)methyl)benzyl)-3,5-dimethylpiperazin-1-yl)methyl)benzamide] | – | ** (50%~100%) | – | – | – | – | – | – | – | * (0%~50%) | * (0%~50%)
